# Laboratory results reported in paper PMC11232401, “Characterization of antimalarial activity of artemisinin-based hybrid drugs” (Antimicrobial Agents and Chemotherapy, 2024).
# Where two headings read alike, the source gives them in different places.
# Legend:
# [1] = test system: 3D7 strain of P. falciparum; assay: Host cell-mediated drug degradation: antiplasmodial activity of uRBC supernatants; type: cell-based, Plasmodium falciparum; details: for IC50: Plasmodium falciparum, 3D7, 0.16 h, 500 nM drug, 3D7, SYBR Green I, median ± SEM (AQ mean, 95% CI), read-out: IC50 of supernatants harvested at 0.16 h; for Fold changes (24 h/0.16 h): 3D7, ratio of IC50 at 24 h to IC50 at 0.16 h
# Experimental: Each well of 96-well plates was filled with 125 µL drug (1000 nM) and 125 µL uninfected red blood cells (uRBC), which were mixed to obtain a final drug concentration of 500 nM and 2.5% or 1.0% hematocrit. The plates were incubated at 37°C in the standard gas mixture. After each time point (10 min, 6 h, and 24 h), supernatants were carefully harvested and stored at −80°C until use. […] Next, supernatants were diluted in a complete medium in six different dilutions and were aliquoted in new plates. The antimalarial activity of these supernatants and freshly dissolved drugs was determined in an asynchronous parasite culture of P. falciparum (3D7, D10, and W2 strains) for 72 h using the same method described above, and parasite viability was assessed by the pLDH ([38]) and SYBR Green I ([41]) methods. Only the experiments where the IC50 values of the supernatants harvested at 10 min were the same as those of the respective fresh drugs were considered for determining equivalent drug concentration. […] Decay in drug concentration was estimated by using the normalized slope values calculated from linear regression fits using the slope values of a standard curve as reference. Three independent experiments were performed using two replicates.
# Figure S5: Data associated to Figure 3 in the main text of the manuscript. Panel A: Representative response-concentration curves of the antiplasmodial activity of supernatant-derived uRBC (2.5% hematocrit) harvested at indicated times (0.16, 6, and 24 h). Drug activity on parasite viability was determined 72 h after parasite incubation (3D7 strain, asynchronous). Values were subtracted from control (without treatment), transformed, and normalized to calculate nonlinear fit. Parasite viability was determined by SYBR Green I. Values are mean and error bars are the standard deviation of a single experiment, each concentration in duplicate. […] Footnotes: ^[a] Parasite viability was determined by SYBR Green I. ^[b^] Parasite viability was determined by pLDH readout. Values are median ± SEM of three independent experiments, each concentration in duplicate. ^[c^] […] These values are expressed as mean and 95% confidence interval (CI) of one experiment, each concentration in duplicate. […] Unpaired two-tailed t-test at 95% CI: *p <0.05; **p <0.01.
# [2] = test system: Asynchronous NF54 strain of P. falciparum; assay: Speed of drug activity (pLDH); type: cell-based, Plasmodium falciparum; details: for IC50: Plasmodium falciparum, NF54, asynchronous, mean (95% CI)
# Experimental: Each well of 96-well plates was filled with 100 µL drug and 100 µL culture containing asynchronous P. falciparum (NF54 strain) parasites, which were mixed to obtain a final parasitemia of 1.0% to 1.5% and 1.0% hematocrit. The plates were incubated for 24, 48, and 72 h at 37°C with a standard gas mixture. […] Parasite viability was measured using the pLDH method, and IC50 values were calculated as described above. Three independent experiments were performed using two technical replicates.
# Figure S3: Speed of antiparasitic activity of hybrids (1) and (2) against CQ-sensitive NF54 strain of P. falciparum. Panel A: Representative response-concentration curves. Panel B: A table summarizing the results. Footnotes for table: ^[a] Parasite viability was accessed at each indicated time (24, 48, or 72 h) after addition of drugs. Values are the mean and 95% confidence interval of one experiment using each concentration of compounds in duplicate. Parasite viability was determined by parasite lactate dehydrogenase (pLDH) assay. DHA = dihydroartemisinin; ATO = atovaquone.
# [3] = test system: quiescent ART-resistant parasites (F32-ART); assay: Quiescent-stage survival assay (QSA); type: cell-based, Plasmodium falciparum; details: threshold of activity 6 days
# Experimental: The QSA was performed as previously described to determine the drug activity on quiescent ART-resistant parasites ([11]). F32-ART culture parasites were synchronized at the ring stage and adjusted to 3% parasitemia and 2% hematocrit. […] At the end of treatment, parasites from each of the three conditions were washed with RPMI-1640 medium and replaced in new wells in a drug-free culture medium with 10% human serum. Parasitemia was determined daily by thin blood smears until the cultures reached their initial parasitemia (3%), which was defined as the recrudescence day ([11]). The recrudescence capacity of parasites exposed in conditions A and B was compared to determine whether the drug was active on quiescent parasites. Condition C was designed to check that the concentration at which the drug was tested acted on proliferating parasites. If no parasite recrudescence was observed, the experiment was stopped.
# [4] = In vitro metabolic stability assay in microsomes; type: in vitro ADME; details: for half-life at 1 µM: read-out: Degradation half-life; for microsomal CLint at 1 µM: 0.4 mg/mL
# Experimental: In vitro microsomal stability assay was performed in duplicate in a 96-well microtiter plate, using a single-point experiment design ([42]). Test compounds (1 µM) were incubated individually in human (pool of 50, mixed gender), rat (pool of 711, male Sprague Dawley), and mouse (pool of 1,634, male CD1) liver microsomes (Xenotech, Kansas, USA) to a final protein concentration of 0.4 mg/mL, suspended in 0.1 M phosphate buffer (pH 7.4). Incubations were started by the addition of NADPH (1 mM) as a cofactor and shaken for 30 min at 37°C. The reactions were quenched by the addition of 300 µL of ice-cold acetonitrile containing an internal standard (carbamazepine, 0.0236 µg/mL) and centrifuged. The supernatant was transferred to a fresh 96-well plate and analyzed by liquid chromatography-tandem mass spectrometry (LC-MS/MS) (Agilent Rapid Resolution HPLC, AB SCIEX 4500 MS). The relative loss of the parent compound over time was monitored, and plots (concentration vs time) were prepared per compound to determine the first-order rate constant for compound depletion. This was in turn used to calculate half-life, in vitro intrinsic clearance (Clint), and in vivo hepatic extraction ratio ([43]).
structure (smiles),measurement,setting,value
"CCN(CC)Cc1cc(Nc2ccnc3cc(Cl)ccc23)ccc1O [AQ, amodiaquine, reference compound]",IC50,[1]; uRBC 1.0% hematocrit,3.9 nM
same,IC50,[1]; uRBC 2.5% hematocrit,3.6 nM
same,Fold changes (24 h/0.16 h),[1]; uRBC 1.0% hematocrit,0.76
same,Fold changes (24 h/0.16 h),[1]; uRBC 2.5% hematocrit,0.91
"O=C1C(O)=C([C@H]2CC[C@H](c3ccc(Cl)cc3)CC2)C(=O)c2ccccc21 [ATO, atovaquone, reference compound]",IC50,"[2]; viability at 24 h, read-out: IC50, 24 h",> 600 nM
same,IC50,"[2]; viability at 48 h, read-out: IC50, 48 h",5.3 nM
same,IC50,"[2]; viability at 72 h, read-out: IC50, 72 h",0.78 nM
same,Conclusion (speed of antiparasitic activity),"[2]; from IC50 at 24, 48, 72 h",Slow-acting
same,delay of recrudescence in the QSA versus DHA alone,[3],up to 10 days
"C[C@H]1[C@H](OC(=O)CCC(=O)O)O[C@@H]2O[C@@]3(C)CC[C@H]4[C@H](C)CC[C@@H]1[C@@]24OO3 [Artesunate, artesunate, reference compound]",half-life at 1 µM,"[4]; both sexes, pH 7.4, human liver microsomes",7 min
same,microsomal CLint at 1 µM,"[4]; both sexes, human liver microsomes, pH 7.4",250 µL/min/mg
same,Drug remaining after 30 min,[4]; human liver microsomes,5%
same,half-life at 1 µM,"[4]; male, CD1, pH 7.4, mouse liver microsomes",4 min
same,microsomal CLint at 1 µM,"[4]; male, CD1, mouse liver microsomes, pH 7.4",429 µL/min/mg
same,half-life at 1 µM,"[4]; male, Sprague Dawley, pH 7.4, rat liver microsomes",4 min
same,microsomal CLint at 1 µM,"[4]; male, Sprague Dawley, rat liver microsomes, pH 7.4",442 µL/min/mg
same,Drug remaining after 30 min,[4]; mouse liver microsomes,0.6%
same,Drug remaining after 30 min,[4]; rat liver microsomes,0.5%
